Assay results published in patent US20260248126A1, “BIOCIDE” (PURGOS APS, priority 2020, published 2026).
Values joined by “and” are separate entries in the source; they are usually repeats but may differ in a detail not shown here. Equal values may be shown once.

Key:
[1] = tested on: Gloeophyllum trabeum. BAM Ebw. 109; assay: EN 113 test against wood destroying basidiomycetes (impregnated Scots pine sapwood); type: cell-based
[2] = 10% N-BDA in water; cited from earlier work
[3] = tested on: microbial contamination of PVB dispersion (bacteria count); assay: PVB dispersion treated with NBDA: microbial contamination by cATP (LuminUltra); type: cell-based; conditions: 25° C.
[4] = tested on: Canidida albicans ISI 1226; assay: Minimal inhibitory concentration (MIC), microtiter plate; type: cell-based, Candida albicans
Procedure: For the tested substance. the stock solution was 10%. Minimum inhibitory concentrations (MICs) are defined as the lowest concentration of an antimicrobial that will inhibit the visible growth of a microorganism after a standardized incubation. In the present study, MIC assay was performed by pipetting robot. The principle is that an indicator microorganism at a defined cell density is cultured with a range of concentrations of the test compound, one concentration pr. well in a row on the microtiter plate. For bacteria and yeasts the minimal inhibitory concentration was detected as no increase of optical density (OD), for moulds microtiter plates were read visually. Each indicator organism is tested in duplicate and the MIC is calculated as the average of the two determinations. The tested concentrations of the antimicrobial substances were 2-fold dilutions from 5%. All indicator organisms (see Table 2.) were pre-cultivated in a suitable growth medium and diluted in the same medium to give a final concentration in the assay of ~1×10^3 cfu/ml. The microtiter plates were incubated under specific incubation conditions (see Table 3). [table]

[5] = tested on: selected typical species of contaminants; assay: Substitution of conventional biocides with NBDA in product recipes: biocidal function (LuminUltra test, 32° C. incubation, Examples 3-6); type: cell-based
Text: Provision and test of the N-sample can be optional.
Ideally, the T, C and N-samples are provided and stored using methods, protocols, raw materials, conditions and the like, which are very close, and ideally identical, mutatis mutandis. In particular, the samples should be subjected to similar or identical microbial contamination during their provision, and or storage if possible.
Samples, such as test-, control- and/or negative control samples are provided according to Example 3. To assess the effect of the biocide(s), microbial contamination is measured, such as according to Example 6, or other conventional methods known in the art.
In short, samples are exposed to microbial contamination (microbial stress test) e.g., by opening a lid and closing it for a defined period of time, or other operations, mimicking a conventional user situation. Alternatively, samples can be inoculated with defined quantities of microorganisms, such as one or more indicator microorganism.
The samples can be divided into different aliquots, and incubated for selected periods at one or more relevant temperatures, such as e.g., one or more of 4° C., room temperature (RT, usually 20° C., 22° C., or 25° C.), 30° C., 32° C., 37° C., 40° C., and/or 60° C.), simulating e.g., appropriate storage, processing and usage conditions.
Microbial contamination of control, test and/or negative control samples can be determined according to Example 6.
ATP, such as intracellular ATP is measured using a commercially available system, such as provided by LumiUltra®, in particular a method using luminase (Aqua Tools, see details below).
In short, a buffering solution and Luminase enzyme are mixed. After daily ATP standard calibration, an aliquot, such as 1 ml of sample is transferred to an 1 ml extraction tube. After dilution in UltraLute resin, the total ATP (content can be established in the luminescence measuring device. 2) 1 ml sample is dissolved in LumiSolve stabilizing agent. […] For further details, see e.g., Aqua Tools (78300 Poissy, France) Quick reference guide QuenchGone21™ Speciality Test Kit QG21S-50/QG21St-100 2G.

[6] = tested on: Listeria monocytogenes ISI 22; assay: Minimum bactericidal concentration (MBC), outgrowth from MIC plates; type: cell-based
Text: (§1) Even when no growth is detectable in the MIC tests, it is possible that the microorganisms have survived the treatment i.e., they are not killed but just prevented from growing. In order to test for survivors, MBC plates were subsequently made from the MIC plates.

[7] = tested on: Streptococcus termophilus ISI 1563; assay: as above; type: cell-based
Text: as §1

[8] = tested on: Pseudomonas aeruginosa ISI 1462; assay: as above; type: cell-based
Text: as §1

[9] = tested on: Bacillus cereus ISI 842; assay: as above; type: cell-based
Text: as §1

[10] = tested on: Lactobacillus brevis ISI 2269; assay: as above; type: cell-based
Text: as §1

[11] = tested on: Aspergillus niger ISI 3; assay: as above; type: cell-based
Text: as §1

[12] = tested on: Leuconostoc mesenteroides ISI 504; assay: as above; type: cell-based
Text: as §1

[13] = tested on: Debaryomyces hansenii ISI 12; assay: as above; type: cell-based
Text: as §1

[14] = tested on: Murine norovirus; assay: Antiviral activity, ASTM E1052 Kill Time Screen test; type: cell-based; conditions: in 60 seconds; from log reduction 0.34

SMILES: CCCCN(CCO)CCO [NBDA, N-butyldiethanolamine]
- Toxic value, Sol. conc. [1]: 1.01-1.43 % w/w
- fungicide effect, preventing wood destruction ([1]; concentrations of 0.36%, 0.51%, 0.72%, 1.01% and 1.43%): effective as a fungicide for preventing wood destruction
- pH [2]: around 11.1
- pH ([3]; 0.50% NBDA, after 1 month): 9.73
- pH ([3]; 0.50% NBDA, after 1 week): 9.65
- pH ([3]; 0.50% NBDA, after 3 months): 9.62
- pH ([3]; 0.50% NBDA, after 6 months): 9.58
- pH ([3]; 0.50% NBDA, after 1 day): 9.77
- pH ([3]; 1.00% NBDA, after 1 month): 9.86
- pH ([3]; 1.00% NBDA, after 1 week): 9.89
- pH ([3]; 1.00% NBDA, after 3 months): 9.93
- pH ([3]; 1.00% NBDA, after 6 months): 9.67
- pH ([3]; 1.00% NBDA, after 1 day): 10.2
- MIC (%) [4]: 0.63%
- biocidal effect vs normal biocide package ([5]; Styrene-Butadiene-Rubber (SBR)-emulsion, MIT and/or BIT replaced (Example 16)): comparable and better than the normal biocide package
- biocidal effect vs benzalkonium chloride ([5]; algae removing compound, 1-5% (Example 9)): comparable or even surpassing benzalkonium chloride in function
- biocidal effect vs benzalkonium chloride ([5]; circulating heat-transfer systems, 1-5% (Example 13)): comparable to benzalkonium chloride
- biocidal effect vs normal biocide package ([5]; combination products: dispersions, emulsions, suspensions (Example 19)): comparable and better than the normal biocide package
- preservation effect vs food preservatives ([5]; food, comparable amounts (Example 40)): shows compatibility and suitable preservation effect(s)
- biocidal effect vs normal biocide package ([5]; hand cleanser (Example 37)): comparable or even better than the normal biocide package
- biocidal effect vs conventional biocide ([5]; liquid dishwashing compound, MIT and/or BIT replaced with 0.01-1% (Example 7)): comparable to or even surpassing the conventional biocide
- biocidal effect vs benzalkonium chloride ([5]; liquid disinfection compound for pipes, 1-5% (Example 11)): comparable to benzalkonium chloride
- biocidal effect vs benzalkonium chloride and glutaraldehyde ([5]; liquid disinfection compound for stables, 1-5% (Example 10)): comparable or even surpassing both benzalkonium chloride and glutaraldehyde in function
- biocidal effect vs benzalkonium chloride ([5]; liquid disinfection compound, 1-5% (Example 8)): comparable or even surpassing benzalkonium chloride in function
- biocidal effect vs normal biocide package ([5]; moisturizing crème / skin- or face-care product (Example 35)): comparable or even better than the normal biocide package
- performance vs MIT/BIT system ([5]; precoat composition containing SBR, 0.5% NBDA (Example 24)): same performance as the origin
- biocidal effect vs normal biocide package ([5]; soap (Example 38)): comparable or even better than the normal biocide package
- biocidal effect vs normal biocide package ([5]; stabilized suspension, MIT and BIT replaced (Example 18)): comparable and better than the normal biocide package
- biocidal effect vs chlorine based solutions ([5]; swimmingpool water (Example 36)): comparable or even better than chlorine based traditional solutions
- biocidal effect vs benzoate ([5]; toothpaste, benzoate replaced with similar concentration (Example 34)): comparable or even better than benzoate
- biocidal effect vs benzalkonium chloride ([5]; waterborne cooling compound, 1-5% (Example 12)): comparable or surpassing benzalkonium chloride
- biocidal effect vs benzalkonium chloride ([5]; watersystems for toilets, washing facilities, 1-5% (Example 14)): comparable to benzalkonium chloride
- MBC(%) [6]: 2.5%
- MBC(%) [7]: 1.25%
- optical density (OD), MIC Data (second Streptococcus table) ([7]; NBDA 0.02%): 0.346 and 0.323
- optical density (OD), MIC Data (second Streptococcus table) ([7]; NBDA 0.04%): 0.307 and 0.283
- optical density (OD), MIC Data (second Streptococcus table) ([7]; NBDA 0.08%): 0.311 and 0.304
- optical density (OD), MIC Data (second Streptococcus table) ([7]; NBDA 0.16%): 0.251 and 0.232
- optical density (OD), MIC Data (second Streptococcus table) ([7]; NBDA 0.31%): 0.802 and 0.522
- optical density (OD), MIC Data (second Streptococcus table) ([7]; NBDA 0.63%): 0.277 and 0.427
- optical density (OD), MIC Data (second Streptococcus table) ([7]; NBDA 1.25%): 0.072
- optical density (OD), MIC Data (second Streptococcus table) ([7]; NBDA 2.50%): 0.070 and 0.068
- optical density (OD), MIC Data (second Streptococcus table) ([7]; NBDA 5.00%): 0.062 and 0.058
- MBC(%) [8]: 1.25%
- MBC(%) [9]: 1.25%
- MBC(%) [10]: 0.31%
- MBC(%) [11]: 0.63%
- MBC(%) [12]: 0.63%
- optical density (OD), MRC Data ([12]; NBDA 0.02%): 1.449 and 1.467
- optical density (OD), MRC Data ([12]; NBDA 0.04%): 1.449 and 1.468
- optical density (OD), MRC Data ([12]; NBDA 0.08%): 1.413 and 1.467
- optical density (OD), MRC Data ([12]; NBDA 0.16%): 1.337 and 1.425
- optical density (OD), MRC Data ([12]; NBDA 0.31%): 1.452 and 1.448
- optical density (OD), MRC Data ([12]; NBDA 1.25%): 0.075
- optical density (OD), MRC Data ([12]; NBDA 2.50%): 0.076 and 0.077
- optical density (OD), MRC Data ([12]; NBDA 5.00%): 0.066 and 0.067
- MBC(%) [13]: 2.5%
- Norovirus eliminated / destroyed [14]: 54%
